Structures are written as SMILES.

As usually defined, the IC50 is the midpoint of a concentration-inhibition curve.

The target of this experiment is T1, JNK1 (Homo sapiens, UniProt P45983).
T1 construct: purchased Carna Biosciences
T1 sequence (P45983 whole entry): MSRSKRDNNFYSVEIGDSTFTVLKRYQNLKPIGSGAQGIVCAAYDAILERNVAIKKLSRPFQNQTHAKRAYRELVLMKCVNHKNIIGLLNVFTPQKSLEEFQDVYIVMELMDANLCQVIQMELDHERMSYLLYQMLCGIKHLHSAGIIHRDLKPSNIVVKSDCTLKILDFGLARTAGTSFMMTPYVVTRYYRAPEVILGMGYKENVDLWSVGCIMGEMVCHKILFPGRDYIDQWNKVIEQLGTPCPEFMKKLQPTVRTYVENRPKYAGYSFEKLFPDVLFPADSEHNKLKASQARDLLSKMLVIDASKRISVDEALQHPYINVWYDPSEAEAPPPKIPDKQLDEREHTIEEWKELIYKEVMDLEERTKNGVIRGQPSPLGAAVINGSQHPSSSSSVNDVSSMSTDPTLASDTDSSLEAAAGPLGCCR
Nature of the experiment: JNK1 biochemical assays (one or more of: time resolved fluorescence, Z'-LYTE Cascade, radioactive). The note with it: tested in one or more of the JNK1 biochemical assays; read-out: Act. Level (JNK1 biochemical assay IC50 activity level).
Turning to `CC(C)CC(=O)N1CCC(Nc2nc(N[C@@H]3CC[C@@H](O)C3)ncc2C(N)=O)CC1` [Example A-86, 2-((1R,3R)-3-hydroxycyclopentylamino)-4-(1-(3-methylbutanoyl)piperidin-4-ylamino)pyrimidine-5-carboxamide], the IC50 is 200 to 800 nM.

As for `CC(C)CC(=O)N1CCC(Nc2ncc(C(N)=O)c(N[C@H]3CC[C@@H](O)C3)n2)CC1` [Example A-87, 4-((1S,3R)-3-hydroxycyclopentylamino)-2-(1-(3-methylbutanoyl)piperidin-4-ylamino)pyrimidine-5-carboxamide], the IC50 was < 200 nM.

For the molecule `CC(C)CNc1nc(N[C@H]2CC[C@H](O)CC2)ncc1C(N)=O` [Example A-88, 2-((1r,4r)-4-hydroxycyclohexylamino)-4-(isobutylamino)pyrimidine-5-carboxamide], the IC50 is < 200 nM.

Take `CCC(=O)N1CCC(Nc2ncc(C(N)=O)c(N[C@H]3CC[C@@H](O)CC3)n2)CC1` [Example A-89, 4-((1s,4s)-4-hydroxycyclohexylamino)-2-(1-propionylpiperidin-4-ylamino)pyrimidine-5-carboxamide]: the IC50 is < 200 nM.

As for `CCC(=O)N1CCC(Nc2nc(N[C@H]3CC[C@H](O)CC3)ncc2C(N)=O)CC1` [Example A-90, 2-((1r,4r)-4-hydroxycyclohexylamino)-4-(1-propionylpiperidin-4-ylamino)pyrimidine-5-carboxamide], the IC50 was < 200 nM.

As to `CO[C@H]1CC[C@H](Nc2ncc(C(N)=O)c(N[C@H]3CCC[C@@H]3O)n2)CC1` [Example A-91, 4-((1S,2S)-2-hydroxycyclopentylamino)-2-((1r,4S)-4-methoxycyclohexylamino)pyrimidine-5-carboxamide], the IC50 was < 200 nM.

For `COC[C@H]1CC[C@H](Nc2ncc(C(N)=O)c(N[C@H]3CCC[C@@H]3O)n2)CC1` [Example A-92, 4-((1S,2S)-2-hydroxycyclopentylamino)-2-((1r,4S)-4-(methoxymethyl)cyclohexylamino)pyrimidine-5-carboxamide], the IC50 is < 200 nM.

In the case of `COC[C@H]1CC[C@H](Nc2ncc(C(N)=O)c(N[C@H]3CCC(O)C3)n2)CC1` (stereo partly drawn) [Example A-94, 4-((1S,3R)-3-hydroxycyclopentylamino)-2-((1r,4S)-4-(methoxymethyl)cyclohexylamino)pyrimidine-5-carboxamide], the IC50 is < 200 nM.

For `CCO[C@H]1CC[C@@H](Nc2nc(N[C@@H]3CC[C@@H](O)C3)ncc2C(N)=O)CC1` [Example A-95, 4-((1s,4S)-4-ethoxycyclohexylamino)-2-((1R,3R)-3-hydroxycyclopentylamino)pyrimidine-5-carboxamide], the IC50 is < 200 nM.

For `CCO[C@H]1CC[C@H](Nc2ncc(C(N)=O)c(N[C@@H]3CCC(O)C3)n2)CC1` (stereo partly drawn) [Example A-96, 2-((1r,4R)-4-ethoxycyclohexylamino)-4-((1R,3S)-3-hydroxycyclopentylamino)pyrimidine-5-carboxamide], the half-maximal inhibitory concentration (IC50) is < 200 nM.

On to `CO[C@H]1CC[C@@H](Nc2nc(N[C@@H]3CC[C@@H](CO)C3)ncc2C(N)=O)CC1` [Example A-97, 2-((1R,3R)-3-(hydroxymethyl)cyclopentylamino)-4-((1s,4S)-4-methoxycyclohexylamino)pyrimidine-5-carboxamide], for which the IC50 is < 200 nM.

For the molecule `CO[C@H]1CC[C@H](Nc2ncc(C(N)=O)c(N[C@H]3CC[C@H](CO)C3)n2)CC1` [Example A-98, 4-((1S,3S)-3-(hydroxymethyl)cyclopentylamino)-2-((1r,4S)-4-methoxycyclohexylamino)pyrimidine-5-carboxamide], the IC50 is < 200 nM.

As to `COC[C@H]1CC[C@@H](Nc2nc(N[C@H]3CCC(O)C3)ncc2C(N)=O)CC1` (stereo partly drawn) [Example A-99, 2-((1S,3S)-3-hydroxycyclopentylamino)-4-((1s,4R)-4-(methoxymethyl)cyclohexylamino)pyrimidine-5-carboxamide], the IC50 is < 200 nM.

Consider `CO[C@H]1CC[C@@H](Nc2nc(N[C@H]3CC[C@H](O)CC3)ncc2C(N)=O)CC1` [Example A-100, 2-((1r,4r)-4-hydroxycyclohexylamino)-4-((1s,4s)-4-methoxycyclohexylamino)pyrimidine-5-carboxamide], for which the IC50 was < 200 nM.

Turning to `CO[C@H]1CC[C@H](Nc2ncc(C(N)=O)c(N[C@H]3CC[C@@H](O)CC3)n2)CC1` [Example A-101, 4-((1s,4s)-4-hydroxycyclohexylamino)-2-((1r,4r)-4-methoxycyclohexylamino)pyrimidine-5-carboxamide], the IC50 was < 200 nM.

Consider `CCO[C@H]1CC[C@H](Nc2ncc(C(N)=O)c(NC[C@H](C)O)n2)CC1` [Example A-102, 2-((1r,4S)-4-ethoxycyclohexylamino)-4-((S)-2-hydroxypropylamino)pyrimidine-5-carboxamide], for which the IC50 is < 200 nM.

Take `CCO[C@H]1CC[C@H](Nc2ncc(C(N)=O)c(N[C@H]3CCC[C@@H]3OC)n2)CC1` [Example A-103, 2-((1r,4S)-4-ethoxycyclohexylamino)-4-((1S,2S)-2-methoxycyclopentylamino)pyrimidine-5-carboxamide]: the IC50 is < 200 nM.

On to `CCO[C@H]1CC[C@H](Nc2ncc(C(N)=O)c(N[C@@H]3CCC[C@@H]3O)n2)CC1` [Example A-104, 2-((1r,4R)-4-ethoxycyclohexylamino)-4-((1R,2S)-2-hydroxycyclopentylamino)pyrimidine-5-carboxamide], for which the IC50 was < 200 nM.

Turning to `CCO[C@H]1CC[C@H](Nc2ncc(C(N)=O)c(N[C@H]3CCOC3)n2)CC1` [Example A-105, 2-((1r,4S)-4-ethoxycyclohexylamino)-4-((S)-tetrahydrofuran-3-ylamino)pyrimidine-5-carboxamide], the IC50 was < 200 nM.

Regarding `CCO[C@H]1CC[C@@H](Nc2nc(NC(C)(C)CO)ncc2C(N)=O)CC1` [Example A-106, 4-((1s,4s)-4-ethoxycyclohexylamino)-2-(1-hydroxy-2-methylpropan-2-ylamino)pyrimidine-5-carboxamide], the IC50 was 200 to 800 nM.

In the case of `CC(C)CC(=O)N1CCC(Nc2ncc(C(N)=O)c(NC3CCC3)n2)CC1` [Example A-107, 4-(cyclobutylamino)-2-(1-(3-methylbutanoyl)piperidin-4-ylamino)pyrimidine-5-carboxamide], the IC50 was < 200 nM.

For `NC[C@H]1CC[C@@H](Nc2nc(NC3CCOCC3)ncc2C(N)=O)CC1` [Example A-108, 4-((1s,4s)-4-(aminomethyl)cyclohexylamino)-2-(tetrahydro-2H-pyran-4-ylamino)pyrimidine-5-carboxamide], the IC50 is < 200 nM.

As to `COC[C@H]1CC[C@@H](Nc2nc(N[C@H]3CC[C@H](O)CC3)ncc2C(N)=O)CC1` [Example A-109, 2-((1r,4r)-4-hydroxycyclohexylamino)-4-((1s,4s)-4-(methoxymethyl)cyclohexylamino)pyrimidine-5-carboxamide], the IC50 is < 200 nM.

For `CC(C)CC(=O)N1CCC(Nc2ncc(C(N)=O)c(NC3CCOCC3)n2)CC1` [Example A-110, 2-(1-(3-methylbutanoyl)piperidin-4-ylamino)-4-(tetrahydro-2H-pyran-4-ylamino)pyrimidine-5-carboxamide], the IC50 lay within 200 to 800 nM.

Turning to `CC(C)(O)[C@H]1CC[C@@H](Nc2nc(NC3CCOCC3)ncc2C(N)=O)CC1` [Example A-111, 4-((1s,4s)-4-(2-hydroxypropan-2-yl)cyclohexylamino)-2-(tetrahydro-2H-pyran-4-ylamino)pyrimidine-5-carboxamide], the IC50 was < 200 nM.

(Values after patent US12129237B2, “Substituted diaminocarboxamide and diaminocarbonitrile pyrimidines, compositions thereof, and methods of treatment therewith” (SIGNAL PHARMACEUTICALS, LLC, priority 2011, dated 2024).)
